Measurements taken from US20220133701A1, “METHODS OF TREATING PAIN” (Yeda Research and Development Co. Ltd., priority 2019, published 2022).

How the values were obtained:
mice [1] = test: Open field; type: in vivo, mouse; conditions: wild-type mice three weeks after intrathecal AAV9 shRNA (FIG. 5A)
Description: Motility and anxiety-like behaviors were assayed in the open field (OF) as previously described^8. Mouse activity was tracked and recorded using VideoMot2 (TSE System, Germany). OF was performed under 120 1× for the assessment of anxiety-related behaviors. The OF raw data were further analyzed with COLORcation [Dagan et al. J Neurosci Methods 270, 9 (2016)].

SNI mice = test: Spared nerve injury (SNI) model of neuropathic pain, paw withdrawal threshold (PWT) by Von Frey test; type: in vivo, mouse; conditions: SNI mice, viral (AAV9) knockdown followed by SNI, from day 60 onward, vs shCtrl (FIG. 4E)
Description: Chronic neuropathic pain was assessed using the spared nerve injury (SNI) model^13. Mice were anaesthetized with Ketamine/Xylazine (10 mg/kg body weight, intraperitoneal). The skin on the lateral surface of the thigh was incised and a section was made directly through the biceps femoris muscle in order to expose the sciatic nerve and its three terminal branches: the sural, common peroneal and tibial nerves. The SNI procedure comprised an axotomy and ligation of the tibial and common peroneal nerves leaving the sural nerve intact. The peroneal and the tibial nerves were tight-ligated and sectioned distal to the ligation. […] Following, mice were evaluated over a period of three months.
Von Frey tests of sensitivity to mechanical stimuli were conducted as previously described [Marvaldi et al. Dev Neurobiol 75, 217 (2015)]. Briefly, mice were placed in acrylic chambers suspended above a wire mesh grid and allowed to habituate to the testing apparatus for one hour prior to experiments. When the mouse was calm, the von Frey filaments were pressed against the plantar surface of the paw until the filament buckled and held for a maximum of 3 seconds. A positive response was noted if the paw was sharply withdrawn on application of the filament. Testing began with filament target force 13.7 milliNewtons and progressed according to an up-down method. 2 gram Von Frey filaments were used to assess sensitivity to noxious mechanical stimulation, scoring mice responses as follows: 0, no response; 1, visible signs of discomfort without leg withdrawal; 2, withdrawal of the leg.

Kpna4/importin α3 mRNA = test: RT-qPCR of importin α3 (Kpna4) mRNA in DRG cultures after intrathecal AAV; type: in vivo, mouse; conditions: DRG cultures from mice one month following intrathecal injection; vs shCtrl (FIG. 3F)
Description: Gene expression analysis by RT-qPCR: Total RNA from DRG neuronal cultures and DRG tissue from SNI mice were extracted using the Ambion RNAqueous-Micro total RNA isolation kit (Life Technologies Corp.). RNA purity, integrity (RIN>8) and concentration was determined, and 100-200 ng of total RNA was then used to synthesize cDNA using SuperScript III (Invitrogen). RT-qPCR was performed on a ViiA7 System (Applied Biosystems) using PerfeCTa SYBR Green (Quanta Biosciences, Gaithersburg, USA). Forward/Reverse primers were designed for different exons and the RNA was treated with […] to avoid false-positives. Amplicon specificity was verified by melting curve analysis. All RT-qPCR reactions were conducted in technical triplicates and the results were averaged for each sample, normalized to Actb levels and the relevant reporter genes such as GFP and for the viruses; and analyzed using the comparative ΔΔCt method [Livak & Schmittgen. Methods 25, 402 (2001)]. The following primers (Mus musculus) were used: […]

importin α3 = test: Western blot of importin α3 in HEK cells transduced with AAV9 constructs; type: cell-based; conditions: shα3 vs shCtrl, α3OE vs GFP (FIGS. 3A-C)
Description: Transfection and Western blot analysis: Knockdown and overexpression constructs were tested in HEK or N2A cells transfected using JetPEI (Polyplus) according to manufacturer's instructions and lysed 48 hours later in RIPA buffer supplemented with protease inhibitors (Complete, Roche). For Western blot analysis, 5 μg of protein was separated on TGX Protean 5-15% gradient gels (Biorad) and transferred to nitrocellulose membranes. Membranes were blocked with 5% dried milk-TBST and probed overnight with an importin α3 antibody (1:5000) and GAPDH (MAB374, Millipore, 1:5000) as a loading control in 2% milk-TBST, followed by an anti-mouse HRP-conjugated antibody (#1706516 Biorad). Chemiluminescence was detected with Amersham Imager 600 and band intensities were quantified using the built-in software. AAV production and intrathecal injection: Purified adeno-associated virus (AAV) or the peripheral neuron specific PHP.S (AAV-PHP.S) [K. Y. Chan et al., Nat Neurosci 20, 1172-1179 (2017)] was produced in HEK 293T cells (ATCC®), with the AAVpro® Purification Kit (All Serotypes) from TaKaRa (#6666). For each construct ten 15 cm plates were transfected with 20 μg of DNA (AAV-plasmid containing the construct of interest and two AASV9 or AAV-PHP.S helper plasmids) using jetPEI® (Polyplus) in DMEM medium without serum or antibiotics. […]

mice [2] = test: Rotarod; type: in vivo, mouse; conditions: wild-type mice three weeks after intrathecal AAV9 shRNA (FIG. 5B)
Description: Rotarod experiments to assess integrity of balance and coordination [Crawley. Neuron 57, 809 (2008)] was carried out using a ROTOR-ROD™ system (83×91×61-SD Instruments, San Diego). Mice were subjected to three trials with 20 minutes inter-trial intervals over three consecutive days, at three weeks and five weeks after AAV9 injection, calculating the daily average each time. Rotarod acceleration was set to 20 rpm in 240 seconds. Latency to fall (sec) was recorded and the average of the three or six consecutive trials was used as an index of motor coordination and balance.

[3] = listed as anti-importin α3 shRNAs

## shα3: AAV9 expressing an importin α3 targeting shRNA (SEQ ID NO: 8), intrathecal injection (DNA GATCCGGCTTTGACAAACATTGCATGAAGCTTGATGCAATGTTTGTCAAAGCCTTTTTT)
Mice [1]
  open field (exploratory behaviour): No deficits were observed in either test
Mice [1]; [3]
  open field (exploratory behaviour): no effect
SNI mice
  paw withdrawal threshold (PWT), Von Frey test: recovery
SNI mice; listed as anti-importin α3 shRNA
  paw withdrawal threshold (PWT), Von Frey test: significant recovery of the paw withdrawal reflex
Kpna4/importin α3 mRNA
  impα3 mRNA (RT-qPCR, log 2 fold-change normalized to GFP): significant downregulation of impα3 mRNA
Importin α3
  impα3 protein level (western blot, GAPDH normalized): downregulation
Mice [2]
  rotarod (motor coordination): No deficits were observed in either test
Mice [2]; [3]
  rotarod (motor coordination): no effect
